{"source": "patent US12097202B2", "about": "(Kadmon Corporation, LLC, priority 2022, dated 2024)", "key": {"[1]": {"tested_on": "rat bone marrow", "assay": "in vivo rat bone marrow micronucleus assay"}, "[2]": {"assay": "Clinical pharmacokinetics in healthy subjects (bioavailability, food effect, distribution, excretion)", "format": "in vivo, human"}, "[3]": {"target": "CYP2C19 (Homo sapiens, UniProt P33261)", "sequence (P33261 whole entry)": "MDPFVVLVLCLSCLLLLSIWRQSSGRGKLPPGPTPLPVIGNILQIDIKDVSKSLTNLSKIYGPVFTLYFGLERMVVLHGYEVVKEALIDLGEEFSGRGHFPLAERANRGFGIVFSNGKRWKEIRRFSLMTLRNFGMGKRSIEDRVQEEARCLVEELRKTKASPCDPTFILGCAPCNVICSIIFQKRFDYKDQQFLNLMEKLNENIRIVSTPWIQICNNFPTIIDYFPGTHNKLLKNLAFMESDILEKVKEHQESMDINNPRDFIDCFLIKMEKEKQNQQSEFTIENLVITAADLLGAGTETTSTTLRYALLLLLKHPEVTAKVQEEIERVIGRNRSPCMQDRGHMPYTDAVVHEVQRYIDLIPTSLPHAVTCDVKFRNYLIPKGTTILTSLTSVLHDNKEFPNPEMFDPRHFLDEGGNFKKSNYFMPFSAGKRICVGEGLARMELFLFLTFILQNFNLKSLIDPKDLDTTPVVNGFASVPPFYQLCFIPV", "assay": "In vitro enzyme inhibition, CYP2C19", "format": "in vitro ADME"}, "[4]": {"target": "T1, UGT1A1 (Homo sapiens, UniProt P22309)", "T1 sequence (P22309 26-533)": "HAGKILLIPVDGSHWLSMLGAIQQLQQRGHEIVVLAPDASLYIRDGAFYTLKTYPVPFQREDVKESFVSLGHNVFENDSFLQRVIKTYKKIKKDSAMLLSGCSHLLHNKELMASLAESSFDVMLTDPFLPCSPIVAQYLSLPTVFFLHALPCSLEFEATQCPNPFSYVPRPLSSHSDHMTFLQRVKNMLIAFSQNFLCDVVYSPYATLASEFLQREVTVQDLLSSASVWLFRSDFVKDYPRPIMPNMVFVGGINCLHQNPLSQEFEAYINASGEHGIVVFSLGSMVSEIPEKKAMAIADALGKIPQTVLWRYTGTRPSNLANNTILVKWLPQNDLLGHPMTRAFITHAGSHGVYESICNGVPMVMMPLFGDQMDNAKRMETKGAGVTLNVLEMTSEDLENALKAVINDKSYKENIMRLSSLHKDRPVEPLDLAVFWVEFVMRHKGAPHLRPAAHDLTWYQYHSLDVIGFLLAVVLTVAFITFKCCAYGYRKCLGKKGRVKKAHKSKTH", "assay": "In vitro enzyme inhibition, UGT1A1", "format": "in vitro ADME"}, "[5]": {"tested_on": "patients with chronic GVHD", "assay": "Pooled adverse reactions and laboratory abnormalities, 83 adult chronic GVHD patients on 200 mg once daily (KD025-213 and KD025-208)", "format": "in vivo, human", "settings": "for Alanine Aminotransferase Increased / Alkaline Phosphatase Increased / Calcium Decreased / Creatinine Increased / Gamma Glutamyl Transferase Increased / Hemoglobin Decreased / Lymphocytes Decreased / Neutrophil Count Decreased / Phosphate Decreased / Platelets Decreased / Potassium Increased: Grade 0-1 Baseline", "source_text": "The median duration of treatment was 9.2 months (range 0.5 to 44.7 months)."}, "[6]": {"target": "CYP3A4 (Homo sapiens, UniProt P08684)", "sequence (P08684 whole entry)": "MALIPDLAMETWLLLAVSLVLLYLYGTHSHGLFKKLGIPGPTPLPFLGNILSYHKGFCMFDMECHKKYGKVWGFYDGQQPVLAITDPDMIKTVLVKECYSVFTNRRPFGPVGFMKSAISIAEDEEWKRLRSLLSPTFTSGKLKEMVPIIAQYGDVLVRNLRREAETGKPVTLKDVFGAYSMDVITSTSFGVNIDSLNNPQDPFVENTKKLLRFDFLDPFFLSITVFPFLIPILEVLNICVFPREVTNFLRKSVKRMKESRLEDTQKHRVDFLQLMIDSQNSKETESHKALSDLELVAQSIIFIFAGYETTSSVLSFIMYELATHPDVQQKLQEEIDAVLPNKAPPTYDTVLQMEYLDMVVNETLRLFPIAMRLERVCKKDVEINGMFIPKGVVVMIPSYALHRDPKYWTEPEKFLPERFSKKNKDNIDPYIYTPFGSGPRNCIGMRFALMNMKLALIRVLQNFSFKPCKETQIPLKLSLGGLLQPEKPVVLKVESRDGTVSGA", "assay": "In vitro metabolism by CYP3A4", "format": "in vitro ADME"}, "[7]": {"target": "T2, UGT1A9 (Homo sapiens, UniProt O60656)", "T2 sequence (O60656 26-530)": "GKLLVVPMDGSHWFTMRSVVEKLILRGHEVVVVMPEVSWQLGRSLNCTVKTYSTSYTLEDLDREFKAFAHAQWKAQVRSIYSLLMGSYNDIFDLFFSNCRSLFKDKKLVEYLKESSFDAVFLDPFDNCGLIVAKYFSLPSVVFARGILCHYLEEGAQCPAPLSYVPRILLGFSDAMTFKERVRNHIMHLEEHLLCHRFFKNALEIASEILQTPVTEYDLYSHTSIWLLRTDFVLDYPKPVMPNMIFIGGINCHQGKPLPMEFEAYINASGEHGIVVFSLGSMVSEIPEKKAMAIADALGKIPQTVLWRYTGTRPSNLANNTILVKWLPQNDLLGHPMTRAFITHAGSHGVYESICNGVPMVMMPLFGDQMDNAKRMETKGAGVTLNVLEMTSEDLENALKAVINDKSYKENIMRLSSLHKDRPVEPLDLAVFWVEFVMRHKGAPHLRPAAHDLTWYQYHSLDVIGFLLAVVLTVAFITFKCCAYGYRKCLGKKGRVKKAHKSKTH", "assay": "In vitro enzyme inhibition, UGT1A9", "format": "in vitro ADME"}, "[8]": {"tested_on": "pregnant rats", "assay": "Embryo-fetal development studies in rats", "format": "in vivo, rat", "settings": "oral, organogenesis, pilot study", "procedure": "In the pilot study, maternal toxicity and embryo-fetal developmental effects were observed. Maternal toxicity (reduced body weight gain) occurred at 150 and 300 mg/kg/day doses. Increased post-implantation loss occurred at 50 and 300 mg/kg/day."}, "[9]": {"settings": "single oral dose of radiolabeled belumosudil"}}, "data": [{"smiles": "CC(C)NC(=O)COc1cccc(-c2nc(Nc3ccc4[nH]ncc4c3)c3ccccc3n2)c1", "note": "[belumosudil, 2-{3-[4-(1H-indazol-5-ylamino)-2-quinazolinyl]phenoxy}-N-(propan-2-yl) acetamide]", "values": [{"measurement": "genotoxicity, bone marrow micronucleus assay", "setting": "[1]", "result": "not genotoxic"}, {"measurement": "AUC increase with high-fat and high-calorie meal vs fasted", "setting": "[2]; single dose", "result": 2, "unit": "times"}, {"measurement": "Cmax increase with high-fat and high-calorie meal vs fasted", "setting": "[2]; single dose", "result": 2.2, "unit": "times"}, {"measurement": "radioactivity recovered in feces", "setting": "[2]; [9]", "result": 85, "unit": "%"}, {"measurement": "radioactivity recovered in feces as unchanged", "setting": "[2]; [9]", "result": 30, "unit": "%"}, {"measurement": "radioactivity recovered in urine", "setting": "[2]; [9]", "result": "less than 5%"}, {"measurement": "inhibition of CYP2C19", "setting": "[3]", "result": "inhibitor"}, {"measurement": "inhibition of UGT1A1", "setting": "[4]", "result": "inhibitor"}, {"measurement": "Alanine Aminotransferase Increased", "setting": "[5]; Grade 2-4 Max Post", "result": 7, "unit": "%"}, {"measurement": "Alkaline Phosphatase Increased", "setting": "[5]; Grade 2-4 Max Post", "result": 9, "unit": "%"}, {"measurement": "Calcium Decreased", "setting": "[5]; Grade 2-4 Max Post", "result": 12, "unit": "%"}, {"measurement": "Creatinine Increased", "setting": "[5]; Grade 2-4 Max Post", "result": 4, "unit": "%"}, {"measurement": "Gamma Glutamyl Transferase Increased", "setting": "[5]; Grade 2-4 Max Post", "result": 21, "unit": "%"}, {"measurement": "Hemoglobin Decreased", "setting": "[5]; Grade 2-4 Max Post", "result": 11, "unit": "%"}, {"measurement": "Lymphocytes Decreased", "setting": "[5]; Grade 2-4 Max Post", "result": 29, "unit": "%"}, {"measurement": "Neutrophil Count Decreased", "setting": "[5]; Grade 2-4 Max Post", "result": 8, "unit": "%"}, {"measurement": "Phosphate Decreased", "setting": "[5]; Grade 2-4 Max Post", "result": 28, "unit": "%"}, {"measurement": "Platelets Decreased", "setting": "[5]; Grade 2-4 Max Post", "result": 10, "unit": "%"}, {"measurement": "Potassium Increased", "setting": "[5]; Grade 2-4 Max Post", "result": 7, "unit": "%"}, {"measurement": "Alanine Aminotransferase Increased", "setting": "[5]; Grade 3-4 Max Post", "result": 2, "unit": "%"}, {"measurement": "Alkaline Phosphatase Increased", "setting": "[5]; Grade 3-4 Max Post", "result": 0, "unit": "%"}, {"measurement": "Calcium Decreased", "setting": "[5]; Grade 3-4 Max Post", "result": 1, "unit": "%"}, {"measurement": "Creatinine Increased", "setting": "[5]; Grade 3-4 Max Post", "result": 0, "unit": "%"}, {"measurement": "Gamma Glutamyl Transferase Increased", "setting": "[5]; Grade 3-4 Max Post", "result": 11, "unit": "%"}, {"measurement": "Hemoglobin Decreased", "setting": "[5]; Grade 3-4 Max Post", "result": 1, "unit": "%"}, {"measurement": "Lymphocytes Decreased", "setting": "[5]; Grade 3-4 Max Post", "result": 13, "unit": "%"}, {"measurement": "Neutrophil Count Decreased", "setting": "[5]; Grade 3-4 Max Post", "result": 4, "unit": "%"}, {"measurement": "Phosphate Decreased", "setting": "[5]; Grade 3-4 Max Post", "result": 7, "unit": "%"}, {"measurement": "Platelets Decreased", "setting": "[5]; Grade 3-4 Max Post", "result": 5, "unit": "%"}, {"measurement": "Potassium Increased", "setting": "[5]; Grade 3-4 Max Post", "result": 1, "unit": "%"}, {"measurement": "Abdominal pain, All Grades", "setting": "[5]; N=83", "result": 22, "unit": "%"}, {"measurement": "Abdominal pain, Grades 3-4", "setting": "[5]; N=83", "result": 1, "unit": "%"}, {"measurement": "Arthralgia, All Grades", "setting": "[5]; N=83", "result": 15, "unit": "%"}, {"measurement": "Arthralgia, Grades 3-4", "setting": "[5]; N=83", "result": 2, "unit": "%"}, {"measurement": "Asthenia, All Grades", "setting": "[5]; N=83", "result": 46, "unit": "%"}, {"measurement": "Asthenia, Grades 3-4", "setting": "[5]; N=83", "result": 4, "unit": "%"}, {"measurement": "Bacterial infection, All Grades", "setting": "[5]; N=83", "result": 16, "unit": "%"}, {"measurement": "Bacterial infection, Grades 3-4", "setting": "[5]; N=83", "result": 4, "unit": "%"}, {"measurement": "Cough, All Grades", "setting": "[5]; N=83", "result": 30, "unit": "%"}, {"measurement": "Cough, Grades 3-4", "setting": "[5]; N=83", "result": 0, "unit": "%"}, {"measurement": "Decreased appetite, All Grades", "setting": "[5]; N=83", "result": 17, "unit": "%"}, {"measurement": "Decreased appetite, Grades 3-4", "setting": "[5]; N=83", "result": 1, "unit": "%"}, {"measurement": "Diarrhea, All Grades", "setting": "[5]; N=83", "result": 35, "unit": "%"}, {"measurement": "Diarrhea, Grades 3-4", "setting": "[5]; N=83", "result": 5, "unit": "%"}, {"measurement": "Dysphagia, All Grades", "setting": "[5]; N=83", "result": 16, "unit": "%"}, {"measurement": "Dysphagia, Grades 3-4", "setting": "[5]; N=83", "result": 0, "unit": "%"}, {"measurement": "Dyspnea, All Grades", "setting": "[5]; N=83", "result": 33, "unit": "%"}, {"measurement": "Dyspnea, Grades 3-4", "setting": "[5]; N=83", "result": 5, "unit": "%"}, {"measurement": "Edema, All Grades", "setting": "[5]; N=83", "result": 27, "unit": "%"}, {"measurement": "Edema, Grades 3-4", "setting": "[5]; N=83", "result": 1, "unit": "%"}, {"measurement": "Headache, All Grades", "setting": "[5]; N=83", "result": 21, "unit": "%"}, {"measurement": "Headache, Grades 3-4", "setting": "[5]; N=83", "result": 0, "unit": "%"}, {"measurement": "Hemorrhage, All Grades", "setting": "[5]; N=83", "result": 23, "unit": "%"}, {"measurement": "Hemorrhage, Grades 3-4", "setting": "[5]; N=83", "result": 5, "unit": "%"}, {"measurement": "Hypertension, All Grades", "setting": "[5]; N=83", "result": 21, "unit": "%"}, {"measurement": "Hypertension, Grades 3-4", "setting": "[5]; N=83", "result": 7, "unit": "%"}, {"measurement": "Infection (pathogen not specified), All Grades", "setting": "[5]; N=83", "result": 53, "unit": "%"}, {"measurement": "Infection (pathogen not specified), Grades 3-4", "setting": "[5]; N=83", "result": 16, "unit": "%"}, {"measurement": "Muscle spasm, All Grades", "setting": "[5]; N=83", "result": 17, "unit": "%"}, {"measurement": "Muscle spasm, Grades 3-4", "setting": "[5]; N=83", "result": 0, "unit": "%"}, {"measurement": "Musculoskeletal pain, All Grades", "setting": "[5]; N=83", "result": 22, "unit": "%"}, {"measurement": "Musculoskeletal pain, Grades 3-4", "setting": "[5]; N=83", "result": 4, "unit": "%"}, {"measurement": "Nausea (includes vomiting), All Grades", "setting": "[5]; N=83", "result": 42, "unit": "%"}, {"measurement": "Nausea (includes vomiting), Grades 3-4", "setting": "[5]; N=83", "result": 4, "unit": "%"}, {"measurement": "Pruritus, All Grades", "setting": "[5]; N=83", "result": 11, "unit": "%"}, {"measurement": "Pruritus, Grades 3-4", "setting": "[5]; N=83", "result": 0, "unit": "%"}, {"measurement": "Pyrexia, All Grades", "setting": "[5]; N=83", "result": 18, "unit": "%"}, {"measurement": "Pyrexia, Grades 3-4", "setting": "[5]; N=83", "result": 1, "unit": "%"}, {"measurement": "Rash, All Grades", "setting": "[5]; N=83", "result": 12, "unit": "%"}, {"measurement": "Rash, Grades 3-4", "setting": "[5]; N=83", "result": 0, "unit": "%"}, {"measurement": "Viral infection, All Grades", "setting": "[5]; N=83", "result": 19, "unit": "%"}, {"measurement": "Viral infection, Grades 3-4", "setting": "[5]; N=83", "result": 4, "unit": "%"}, {"measurement": "adverse reactions leading to dose interruption", "setting": "[5]; N=83", "result": 29, "unit": "%"}, {"measurement": "dose interruption due to asthenia, dyspnea, hemorrhage, hypotension, liver function test abnormal, nausea, pyrexia, edema, renal failure (each)", "setting": "[5]; N=83", "result": 2, "unit": "%"}, {"measurement": "dose interruption due to diarrhea", "setting": "[5]; N=83", "result": 4, "unit": "%"}, {"measurement": "dose interruption due to infections", "setting": "[5]; N=83", "result": 11, "unit": "%"}, {"measurement": "permanent discontinuation due to adverse reactions", "setting": "[5]; N=83", "result": 18, "unit": "%"}, {"measurement": "permanent discontinuation due to nausea", "setting": "[5]; N=83", "result": 4, "unit": "%"}, {"measurement": "metabolism by CYP3A4", "setting": "[6]", "result": "primarily metabolized"}, {"measurement": "inhibition of UGT1A9", "setting": "[7]", "result": "inhibitor"}, {"measurement": "doses at which fetal malformations were observed", "setting": "[8]", "result": "≥ 50", "unit": "mg/kg/day"}]}]}
